Patent publication US20070072946A1 (priority 2005, published 2007)
Where “and” joins values, the source holds several entries; their conditions need not be identical. Equal entries are not always repeated. Structures can show the parent of a compound that is named as a salt.

Columns and labels:
[1] = test system: subjects suffering from fibromyalgia syndrome; conditions: cited from earlier work; for subjects with significant clinical improvement: after one month; for long-term efficacy: at six months, 19% improvement with placebo; for difference from placebo: at three months
patients with FMS = conditions: cited from earlier work
[2] = test system: patients who met the 1990 ACR criteria for fibromyalgia syndrome; assay: Multi-center double-blind, randomized, placebo-controlled study of milnacipran for fibromyalgia (Example 1, FMS031); type: in vivo, human; conditions: for m, number of responders: observed cases; for percentage of responders (greater than 30% reduction in pain from baseline and improvement on the PGIC): observed cases (OC), hydrochloride
Description: The primary outcome was a composite responder analysis assessing response rate at weeks 14 and 15, and the secondary analysis assessed response rate at weeks 26 and 27.
This was a multi-center, randomized, double-blinded, placebo-controlled three-arm study, which enrolled 888 patients who met the 1990 ACR criteria for fibromyalgia syndrome as well as the more detailed admission criteria outlined in the protocol.
Patients recorded baseline symptoms for the first two weeks after washing off anti-depressants, benzodiazepines, and certain other drugs that could potentially interfere with efficacy measurements.
All randomized medications (placebo and milnacipran) were administered in a split-dose (BID) fashion. The doses were administered in a dose escalation regimen as outlined below: • Step 1: 12.5 mg 1 day (12.5 mg pm) • Step 2: 25 mg 2 days (12.5 mg am, 12.5 mg pm) • Step 3: 50 mg 4 days (25 mg am, 25 mg pm) • Step 4: 100 mg 7 days (50 mg am, 50 mg pm) • Step 5: 200 mg 7 days (100 mg am, 100 mg pm).
Patients were required to complete electronic diary, as well as additional paper assessments as described in the schedule of study assessments.
In addition to the daily completion of a proprietary electronic patient diary, the following assessments were obtained:
a. Primary Variables: patient global impression of change (PGIC) and the Fibromyalgia Impact Questionnaire (FIQ);
d. FMS Status Assessments:, Patient pain 24 hour and 7 day recall VAS, the SF-36, Multiple Ability Self-report Questionnaire (MASQ, cognitive function), the Multidimensional Health Assessment Questionnaire (MDHAQ) and the Multi-dimensional Fatigue Inventory (MFI). Diary assessments include current pain (morning, random daily, and evening reports); daily recall pain (morning report); medications taken (evening report); overall pain past week (weekly report), overall fatigue in the last week (weekly report), and the extent that pain kept the patient from caring for themselves (weekly report).
The primary endpoint of this study was a composite responder analysis implementing analysis of three domains of interest, evaluated at […]. The domains measured were:
1) pain (measured by an electronic diary as a daily recall pain score, calculated to weekly average scores);
2) patient global (measured by the PGIC, 1-7 scale); and
3) physical function (measured by the FIQ-PF).
For the primary analysis, the pain domain score was determined by a calculation that compared the average of treatment weeks 14 and 15 to the two baseline weeks, and treatment weeks 26 and 27 vs. baseline for the secondary analysis. The last observation was carried forward if neither the week 14 nor week 15 (or week 26/27) patient self-reported pain score is available to compare to the baseline value.
A responder was defined as a subject who experienced a greater than 30% reduction in pain from baseline and improvement on the PGIC.
See Table 1 for a summary of the results in the Intent-to-Treat Population and Table 2 for a summary of the Last Observation Carried Forward (LOCF), Baseline Observation Carried Forward (BOCF) and study completer (OC) populations. LOCF is an analysis in which observations are carried forward to the last time point for patients who dropped out. The LOCF analysis treats the carried-forward data as observed data at the last time point. BOCF is an analysis that requires the patient remain active in the trial to be evaluated for response. If a patient withdraws from the trial for any reason they are classed as a non-responder irregardless of their pain and global scores at the time of withdrawal.

fibromyalgia patients = conditions: cited from earlier work
[3] = both milnacipran treatment groups (BID and QD), up to 200 mg/day

CN(C)CCC=C1c2ccccc2CCc2ccccc21 [amitriptyline]
subjects with significant clinical improvement [1]: 21%
long-term efficacy [1]: no long-term efficacy could be demonstrated
difference from placebo [1]: no difference between either treatment group and placebo

COc1ccc(C(CN(C)C)C2(O)CCCCC2)cc1 (centres unmarked) [venlafaxine]
patients with insomnia requiring adjunctive medical therapy (patients with FMS; of 11 completing patients): 3 patients
patients with a positive response (50% or greater improvement in two different measurements of overall pain) (patients with FMS; of the 11 patients that completed the study): 6 patients

CN(C)CCC=C1c2ccccc2C=Cc2ccccc21 [cyclobenzaprine]
subjects with significant clinical improvement [1]: 12%
long-term efficacy [1]: no long-term efficacy could be demonstrated
difference from placebo [1]: no difference between either treatment group and placebo

CCN(CC)C(=O)C1(c2ccccc2)CC1CN (centres unmarked) [milnacipran, Z-2-aminomethyl-1-phenyl-N,N-diethylcyclopropanecarboxamide hydrochloride]
efficacy of low dose compared with high dose ([2]; 100 mg/day vs 200 mg/day, long-term treatment): almost as effective as continued administration of high dose milnacipran
Individual Component Responder Rate, PGIC (LOCF) ([2]; 100 mg, 3 month): 54.0%
Individual Component Responder Rate, Pain (LOCF) ([2]; 100 mg, 3 month): 35.7%
Pain Composite Responder Rate, Sensitivity Analysis I (BOCF) ([2]; 100 mg, 3 month): 32.1%
Pain Composite Responder Rate, Sensitivity Analysis II ([2]; 100 mg, 3 month): 32.%
Pain Composite Responder Rate, Sensitivity Analysis III ([2]; 100 mg, 3 month): 32.1%
Pain Composite Responder Rate, Primary Analysis (LOCF) ([2]; 100 mg, 3 month, N = 224): 33.5%
Individual Component Responder Rate, PGIC (LOCF) ([2]; 100 mg, 6 month): 49.6%
Individual Component Responder Rate, Pain (LOCF) ([2]; 100 mg, 6 month): 35.7%
Pain Composite Responder Rate, Sensitivity Analysis I (BOCF) ([2]; 100 mg, 6 month): 26.8%
Pain Composite Responder Rate, Sensitivity Analysis II ([2]; 100 mg, 6 month): 27.2%
Pain Composite Responder Rate, Sensitivity Analysis III ([2]; 100 mg, 6 month): 29.5%
Pain Composite Responder Rate, Primary Analysis (LOCF) ([2]; 100 mg, 6 month, N = 224): 30.8%
m, number of responders ([2]; 100 mg, treatment weeks 14-15, n = 135): 72
m, number of responders ([2]; 100 mg, treatment weeks 26-27, n = 121): 60
Individual Component Responder Rate, PGIC (LOCF) ([2]; 200 mg, 3 month): 50.6%
Individual Component Responder Rate, Pain (LOCF) ([2]; 200 mg, 3 month): 38.3%
Pain Composite Responder Rate, Sensitivity Analysis I (BOCF) ([2]; 200 mg, 3 month): 32.4%
Pain Composite Responder Rate, Sensitivity Analysis II ([2]; 200 mg, 3 month): 32.7%
Pain Composite Responder Rate, Sensitivity Analysis III ([2]; 200 mg, 3 month): 32.4%
Pain Composite Responder Rate, Primary Analysis (LOCF) ([2]; 200 mg, 3 month, N = 441): 34.9%
Individual Component Responder Rate, PGIC (LOCF) ([2]; 200 mg, 6 month): 49.9%
Individual Component Responder Rate, Pain (LOCF) ([2]; 200 mg, 6 month): 35.4%
Pain Composite Responder Rate, Sensitivity Analysis I (BOCF) ([2]; 200 mg, 6 month): 27.0%
Pain Composite Responder Rate, Sensitivity Analysis II ([2]; 200 mg, 6 month): 28.6%
Pain Composite Responder Rate, Sensitivity Analysis III ([2]; 200 mg, 6 month): 29.9%
Pain Composite Responder Rate, Primary Analysis (LOCF) ([2]; 200 mg, 6 month, N = 441): 32.2%
m, number of responders ([2]; 200 mg, treatment weeks 14-15, n = 260): 143
m, number of responders ([2]; 200 mg, treatment weeks 26-27, n = 230): 119
long-term relief from fibromyalgia and its symptoms ([2]; continued daily administration for at least three months): provides long-term (at least three months) relief from fibromyalgia and its symptoms
percentage of responders (greater than 30% reduction in pain from baseline and improvement on the PGIC) ([2]; milnacipran 100 mg/day BID, 3 months (treatment weeks 14-15)): 53.33% and 53.3%
percentage of responders (greater than 30% reduction in pain from baseline and improvement on the PGIC) ([2]; milnacipran 100 mg/day BID, 3 months (treatment weeks 14-15), listed as Milnacipran): 53.33%
percentage of responders (greater than 30% reduction in pain from baseline and improvement on the PGIC) ([2]; milnacipran 100 mg/day BID, 6 months (treatment weeks 26-27)): 49.59% and 49.6%
percentage of responders (greater than 30% reduction in pain from baseline and improvement on the PGIC) ([2]; milnacipran 100 mg/day BID, 6 months (treatment weeks 26-27), listed as Milnacipran): 49.59%
percentage of responders (greater than 30% reduction in pain from baseline and improvement on the PGIC) ([2]; milnacipran 200 mg/day BID, 3 months (treatment weeks 14-15)): 55.0%
percentage of responders (greater than 30% reduction in pain from baseline and improvement on the PGIC) ([2]; milnacipran 200 mg/day BID, 3 months (treatment weeks 14-15), listed as Milnacipran): 55.00%
percentage of responders (greater than 30% reduction in pain from baseline and improvement on the PGIC) ([2]; milnacipran 200 mg/day BID, 6 months (treatment weeks 26-27)): 51.74% and 51.7%
percentage of responders (greater than 30% reduction in pain from baseline and improvement on the PGIC) ([2]; milnacipran 200 mg/day BID, 6 months (treatment weeks 26-27), listed as Milnacipran): 51.74%
deaths or serious adverse events associated with treatment (fibromyalgia patients; Phase II study): no deaths or serious adverse events
acute (short-term) efficacy on the symptom of pain in FMS (fibromyalgia patients; Phase II trial): effective acute (short-term) therapy for the symptom of pain in FMS
completers reporting an improvement in their overall status on the PGIC (fibromyalgia patients; [3]): over 70%
completers reporting worsening on the PGIC (fibromyalgia patients; [3]): 10%
patients with elevation in hepatic enzymes reported as adverse event (fibromyalgia patients; milnacipran-treated patients): 2%
efficacy of BID versus QD dosing in treating pain (fibromyalgia patients; twice-daily dosing compared with QD): more effective in treating pain than QD dosing
efficacy of BID versus QD dosing on fatigue, mood, global wellness, and function (fibromyalgia patients; twice-daily vs once-daily dosing, up to 200 mg/day): approximately equally effective
